Test system: children with physician-diagnosed asthma
Assay: Randomized placebo-controlled study of daily montelukast on LTE4-related albuterol usage in schoolchildren with asthma
Assay type: in vivo, human
Settings: for Change in Albuterol Usage Per IQR Increase in LTE4, Relative difference (treatment vs baseline interval) / Change in Albuterol Usage Per IQR Increase in LTE4, Treatment Interval: montelukast group
Text: Twenty-eight children, aged 6 to 15, who had physician-diagnosed asthma were followed over a 5-month period (Nov. 15, 2005 to Apr. 15, 2006). Children were excluded from the study if they were already receiving montelukast. Many of the children are classified as urban poor. The children attended the same school.
After an initial two and a half month period (baseline interval), children were randomized to receive daily montelukast (montelukast group) or placebo (placebo group) for the final two and a half months of the study (treatment interval). Study medication and placebo were administered in a single-blinded fashion by school nurses or study personnel on school days and by parents (who were blinded) on non-school-days. Children were otherwise followed by their regular physicians who were free to adjust medications as needed (these medication changes were recorded and controlled for in the statistical analysis).
Each child was given a Doser (Meditrak, Hudson, M S) for use at school throughout the 5-month period. The Doser is an electronic counter that records the total number of (albuterol) activations in each 24-hour period. At study initiation, parents completed a questionnaire describing baseline demographic and asthma severity characteristics. School nurses recorded all other medication changes during the study.
Sixteen urine samples were collected from each child on 8 consecutive schooldays during the baseline interval and 8 consecutive schooldays during the treatment interval. Urine was collected at approximately the same time each day (10:00 AM to 12:00 PM). Collection was staggered in groups of 10 children so that urine monitoring occurred daily throughout the 5 months of the study.
Baseline model: A Poisson regression model employing generalized estimating equations (GEE) (Dobson A J. An introduction to generalized linear models, 2nd edition, Chapman & Hall/CRC 2001) was used to determine the strength of association between albuterol medication use (modeled as the outcome) and LTE4 levels, at various lag times (in days) between the variables. An indicator for Friday (=1 if response was on Friday, =0 otherwise) was included because children had regular exercise activities from Monday through Thursday, but not on Friday. […] The same day and up to a 4-day lag of LTE4 was tested for, in separate models.
Experiment model: Daily albuterol use was modeled as a function of LTE4, group (montelukast and placebo), interval (baseline and treatment), and all interactions of these variables, using Poisson regression and employing GEE. Using the baseline model as a guide, 3-day moving averages of LTE4 (days 0-2 and 1-3 prior to current day) were used. Other covariates in the model included daily indicators for Friday, prednisone use, special exercise days during the treatment interval, and interval-level indictors of ICS and LABA use.
Effect modifier models: These models were fit for the subjects randomized to montelukast only. The model had LTE4, interval, the effect modifier of interest, and all interactions of these variables. Otherwise, the model was similar to the ‘Experiment model’ described above. The effect modifiers tested included gender, ICS and LABA use, mean LTE4, mean FENO, height, mean cotinine, and mean LTE4 to FENO ratio.
The interquartile range (IQR) for LTE4 was used to standardize slope estimates; this statistic was determined by first calculating the IQR for each subject, and then taking the median across subjects. For all models described above, a first order autoregressive working covariance structure was used to model repeated measures within subjects over time. SAS software, version 9.1 (PROC GENMOD) was used to fit the data to the models described above. […]

[1] = Group 1 meds: No Meds or ICS, 1-3 day moving average
[2] = Group 2 meds: ICS and LABA, 1-3 day moving average
[3] = LTE4:FENO Ratio 1st quartile estimate
[4] = LTE4:FENO Ratio 3rd quartile estimate
[5] = mean FENO 1st quartile estimate
[6] = mean FENO 3rd quartile estimate
[7] = mean LTE4 1st quartile estimate
[8] = mean LTE4 3rd quartile estimate
[9] = mean urine Cotinine 1st quartile estimate
[10] = mean urine Cotinine 3rd quartile estimate

For `CC(C)(O)c1ccccc1CC[C@@H](SCC1(CC(=O)O)CC1)c1cccc(/C=C/c2ccc3ccc(Cl)cc3n2)c1` [Montelukast, montelukast], the “Change in Albuterol Usage per IQR of LTE4, Relative Diff.” value (Female (Group 2 gender)) was −26.7%, the “Change in Albuterol Usage per IQR of LTE4, Treatment interval” value (Female (Group 2 gender)) was −11.5% and the “Change in Albuterol Usage per IQR of LTE4, Relative Diff.” value [1] was −22.0%. The “Change in Albuterol Usage per IQR of LTE4, Treatment interval” value [1] was −10.5%, the “Change in Albuterol Usage per IQR of LTE4, Relative Diff.” value [2] was −6.6% and the “Change in Albuterol Usage per IQR of LTE4, Treatment interval” value [2] was −1.0%. For the same molecule, the “Change in Albuterol Usage per IQR of LTE4, Relative Diff.” value (Height 1st quartile estimate) was −16.4%, the “Change in Albuterol Usage per IQR of LTE4, Treatment interval” value (Height 1st quartile estimate) was −2.4% and the “Change in Albuterol Usage per IQR of LTE4, Relative Diff.” value (Height 3rd quartile estimate) was −16.4%. The “Change in Albuterol Usage per IQR of LTE4, Treatment interval” value (Height 3rd quartile estimate) was −0.3%, the “Change in Albuterol Usage per IQR of LTE4, Relative Diff.” value [3] was 1.8% and the “Change in Albuterol Usage per IQR of LTE4, Treatment interval” value [3] was −0.8%. The “Change in Albuterol Usage per IQR of LTE4, Relative Diff.” value [4] was −17.6%, the “Change in Albuterol Usage per IQR of LTE4, Treatment interval” value [4] was −1.3% and the “Change in Albuterol Usage per IQR of LTE4, Relative Diff.” value (Male (Group 1 gender)) was −7.9%. The “Change in Albuterol Usage per IQR of LTE4, Treatment interval” value (Male (Group 1 gender)) was −0.5%, the “Change in Albuterol Usage per IQR of LTE4, Relative Diff.” value [5] was −10.4% and the “Change in Albuterol Usage per IQR of LTE4, Treatment interval” value [5] was −0.1%. The “Change in Albuterol Usage per IQR of LTE4, Relative Diff.” value [6] was −0.6%, the “Change in Albuterol Usage per IQR of LTE4, Treatment interval” value [6] was −6.4% and the “Change in Albuterol Usage per IQR of LTE4, Relative Diff.” value [7] was −13.4%. For the same molecule, the “Change in Albuterol Usage per IQR of LTE4, Treatment interval” value [7] was −1.5%, the “Change in Albuterol Usage per IQR of LTE4, Relative Diff.” value [8] was −10.9% and the “Change in Albuterol Usage per IQR of LTE4, Treatment interval” value [8] was −4.8%. The “Change in Albuterol Usage per IQR of LTE4, Relative Diff.” value [9] was −8.2%, the “Change in Albuterol Usage per IQR of LTE4, Treatment interval” value [9] was −4.0% and the “Change in Albuterol Usage per IQR of LTE4, Relative Diff.” value [10] was −6.6%. The “Change in Albuterol Usage per IQR of LTE4, Treatment interval” value [10] was −3.6%, the “Change in Albuterol Usage Per IQR Increase in LTE4, Relative difference (treatment vs baseline interval)” value (Lag 0-2) was −10.8% and the “Change in Albuterol Usage Per IQR Increase in LTE4, Treatment Interval” value (Lag 0-2 (Day 0-2 moving average of LTE4)) was −3.0%. For the same molecule, the “Change in Albuterol Usage Per IQR Increase in LTE4, Relative difference (treatment vs baseline interval)” value (Lag 1-3) was −13.0% and the “Change in Albuterol Usage Per IQR Increase in LTE4, Treatment Interval” value (Lag 1-3 (Day 1-3 moving average of LTE4)) was −3.2%.
